In US10941157B2, “Pesticidal compositions and uses thereof” (Gilead Apollo, LLC, priority 2015, dated 2021):
In brackets after ≈: the same amount, converted by molar mass.

Legend:
Assay type in all cases: cell-based
[1] = tested on: Diplodia maydis (Dm); assay: In vitro pathogen growth inhibition assay, Dm; settings: Stenocarpella maydis, 48 h, ≥90% inhibition; 48 hours vs 2% DMSO control; read-out: Compound Concentration (ppm) sufficient for ≥90% inhibition of growth, Dm
Procedure, shortened: (§1)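 Value reported is the compound concentration reaching ≥90% growth inhibition, from OD readings at 24 and 48 h after blank subtraction, confirmed visually. Inoculum was spores diluted in 17% V8 medium, except Rs, using 1.5 mm mycelial plugs in ¼ PDB; actual compound concentration corrected via OD600.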

[2] = tested on: Rhizoctonia solani (Rs); assay: In vitro pathogen growth inhibition assay, Rs (mycelial plugs); settings: Rhizoctonia solani, 48 h, ≥90% inhibition; mycelial plugs; 48 hours vs 2% DMSO control; read-out: Compound Concentration (ppm) sufficient for ≥90% inhibition of growth, Rs
Procedure, shortened: as §1

[3] = tested on: Saccharomyces cerevisiae (Sc); assay: Yeast growth inhibition assay; settings: Saccharomyces cerevisiae, ≥75% inhibition, read-out: Compound Concentration (ppm) sufficient for ≥75% inhibition, Sc
Procedure: Both tables list the concentration of each compound that was sufficient to ≥90% inhibition of growth for each of the fungal pathogens listed above. In addition, some of compounds were tested in a yeast growth inhibition assay for Saccharomyces cerevisiae (Sc). Table 2 lists the concentration of the tested compound that was sufficient to ≥75% inhibition of Saccharomyces cerevisiae (Sc).

[4] = tested on: Collectotrichum graminicola (Cg); assay: In vitro pathogen growth inhibition assay, Cg; settings: 48 h, ≥90% inhibition; 48 hours vs 2% DMSO control; read-out: Compound Concentration (ppm) sufficient for ≥90% inhibition of growth, Cg
Procedure, shortened: as §1

[5] = tested on: Phytophthora capsici (Pc); assay: In vitro pathogen growth inhibition assay, Pc; settings: 48 h, ≥90% inhibition, 48 hours vs 2% DMSO control, read-out: Compound Concentration (ppm) sufficient for ≥90% inhibition of growth, Pc
Procedure, shortened: as §1

[6] = tested on: Fusarium moniliforme (Fm); assay: In vitro pathogen growth inhibition assay, Fm; settings: Fusarium verticillioides; ≥90% inhibition; 48 hours vs 2% DMSO control; read-out: Compound Concentration (ppm) sufficient for ≥90% inhibition of growth, Fm
Procedure, shortened: as §1

[7] = tested on: Septoria tritici (St); assay: In vitro pathogen growth inhibition assay, St; settings: Zymoseptoria tritici, 48 h, ≥90% inhibition; 48 hours vs 2% DMSO control; read-out: Compound Concentration (ppm) sufficient for ≥90% inhibition of growth, St
Procedure, shortened: as §1

[8] = tested on: Botrtyis cinerea (Bc); assay: In vitro pathogen growth inhibition assay, Bc; settings: 48 h, ≥90% inhibition; 48 hours vs 2% DMSO control; read-out: Compound Concentration (ppm) sufficient for ≥90% inhibition of growth, Bc
Procedure, shortened: as §1

[9] = tested on: Fusarium virguliforme (Fv); assay: In vitro pathogen growth inhibition assay, Fv; settings: ≥90% inhibition, 48 hours vs 2% DMSO control, read-out: Compound Concentration (ppm) sufficient for ≥90% inhibition of growth, Fv
Procedure, shortened: as §1

Structure (SMILES)	IC90 [1] [µg/mL]	IC90 [2] [µg/mL]	IC90 [4] [µg/mL]	IC90 [5] [µg/mL]	IC90 [6] [µg/mL]	IC90 [7] [µg/mL]	IC90 [8] [µg/mL]	IC90 [9] [µg/mL]	IC75 [3] [µg/mL]
COc1ccccc1[C@H](Cn1c(=O)n(C(C)(C)C(=O)N2CCCC2)c(=O)c2c(C)c(-c3ncco3)sc21)OC1CCC(=O)CC1 [Compound I-112]	10 (≈ 15.8 µM)	50 (≈ 78.8 µM)	≥ 2	> 50	0.4 (≈ 0.63 µM)	50 (≈ 78.8 µM)	2 (≈ 3.15 µM)	10 (≈ 15.8 µM)	3.7 (≈ 5.83 µM)
COc1ccccc1[C@H](Cn1c(=O)n(C(C)(C)C(=O)N2CCOCC2)c(=O)c2c(C)c(-c3ncco3)sc21)OC(C)C [Compound I-143]	10 (≈ 16.8 µM)	> 50	50 (≈ 83.8 µM)	> 50	2 (≈ 3.35 µM)	> 50	2 (≈ 3.35 µM)	≥ 10	11 (≈ 18.4 µM)
CCNC(=O)C(C)(C)n1c(=O)c2c(C)c(-c3ncco3)sc2n(C[C@H](OC(C)C)c2ccccc2OC)c1=O [Compound I-144]	10 (≈ 18 µM)	> 50	50 (≈ 90.1 µM)	> 50	2 (≈ 3.61 µM)	> 50	10 (≈ 18 µM)	10 (≈ 18 µM)	11 (≈ 19.8 µM)
COc1ccccc1[C@H](Cn1c(=O)n(C(C)(C)C(N)=O)c(=O)c2c(C)c(-c3ncco3)sc21)OC1CCOCC1 [Compound I-145]	50 (≈ 87.9 µM)	> 50	50 (≈ 87.9 µM)	> 50	2 (≈ 3.52 µM)	> 50	50 (≈ 87.9 µM)	> 50	> 33
COc1ccc(F)cc1[C@H](Cn1c(=O)n(C(C)(C)C(N)=O)c(=O)c2c(C)c(C3CCC3)sc21)OC1CCOCC1 [Compound I-147]	> 50	50 (≈ 87.2 µM)	50 (≈ 87.2 µM)	> 50	2 (≈ 3.49 µM)	> 50	10 (≈ 17.4 µM)	2 (≈ 3.49 µM)	33 (≈ 57.5 µM)
COc1ccc(F)cc1[C@H](Cn1c(=O)n(CCS(N)(=O)=O)c(=O)c2c(C)c(-c3ncco3)sc21)OC1CCOCC1 [Compound I-148]	> 10	50 (≈ 82.1 µM)	50 (≈ 82.1 µM)	> 50	2 (≈ 3.29 µM)	> 50	10 (≈ 16.4 µM)	50 (≈ 82.1 µM)	33 (≈ 54.2 µM)
COc1ccc(F)cc1[C@H](Cn1c(=O)n(C(C)(C)C(=O)N2CCOCC2)c(=O)c2c(C)c(-n3cccn3)sc21)OC(C)C [Compound I-151]	10 (≈ 16.3 µM)	> 50	50 (≈ 81.5 µM)	> 50	2 (≈ 3.26 µM)	> 50	10 (≈ 16.3 µM)	2 (≈ 3.26 µM)	11 (≈ 17.9 µM)

The next lines start with results.

IC90 [1] [µg/mL]	IC90 [2] [µg/mL]	IC90 [4] [µg/mL]	IC90 [5] [µg/mL]	IC90 [6] [µg/mL]	IC90 [7] [µg/mL]	IC90 [8] [µg/mL]	IC90 [9] [µg/mL]	Structure (SMILES)	IC75 [3] [µg/mL]
50 (≈ 81.6 µM)	> 50	50 (≈ 81.6 µM)	> 50	2 (≈ 3.26 µM)	> 50	10 (≈ 16.3 µM)	2 (≈ 3.26 µM)	COc1ccc(F)cc1[C@H](Cn1c(=O)n(C(C)(C)C(N)=O)c(=O)c2c(C)c(-c3ncco3)sc21)OCC1CCC(=O)CC1 [Compound I-149]	11 (≈ 18 µM)
50 (≈ 78.3 µM)	> 50	50 (≈ 78.3 µM)	> 50	2 (≈ 3.13 µM)	> 50	10 (≈ 15.7 µM)	> 50	COc1ccccc1[C@H](Cn1c(=O)n(C(C)(C)C(=O)N2CCOCC2)c(=O)c2c(C)c(-c3ncco3)sc21)OC1CCOCC1 [Compound I-152]	> 33
50 (≈ 93.9 µM)	50 (≈ 93.9 µM)	> 50	> 50	2 (≈ 3.76 µM)	> 50	2 (≈ 3.76 µM)	> 50	CCOC(=O)c1sc2c(c1C)c(=O)n(C(C)(C)C(=O)O)c(=O)n2C[C@H](OC(C)C)c1ccccc1OC [Compound I-153]	> 33.3
10 (≈ 17.2 µM)	> 50	50 (≈ 86.1 µM)	> 50	2 (≈ 3.44 µM)	> 50	2 (≈ 3.44 µM)	50 (≈ 86.1 µM)	COc1ccccc1[C@H](Cn1c(=O)n(C(C)(C)C(N)=O)c(=O)c2c(C)c(-c3ncco3)sc21)OC1CCC(=O)CC1 [Compound I-154]	3.7 (≈ 6.37 µM)
